The source of these data is patent US20240239786A1, “COMPOSITIONS AND METHODS FOR THE TREATMENT AND PREVENTION OF CANCER” (Yale University, priority 2021, published 2024).

Assay [1] deals with PEO1 cells. Briefly: Flow cytometric EdU incorporation (DNA synthesis) assay, PEO1. As to conditions: for cell cycle distribution: 30 μM DB4 or 1 μM triapine; for time-dependent inhibition of DNA synthesis (EdU-positive cells): 30 μM DB4 or 1 μM triapine, 3, 6, 24 hr. Type of assay: cell-based. The protocol:
Cells were plated for 24 hr and then treated with 50 μM compounds for 72 hr. For a positive control, cells were treated with 1 μM triapine for 72 hr. The percentage of cell survival was determined by the MTS cytotoxicity assay. […] Cells were treated with 50 μM compounds or 1 μM triapine for 24 hr. During the last hour, cells were pulse-labeled with EdU, stained with the Click-iT EdU Alexa Fluor 488 Assay Kit, counterstained with 7-AAD, and subsequently analyzed by flow cytometry. EdU-positive cells were gated to determine the percentage of the S phase cell population. The bivariate plots of Alexa Fluor 488 (EdU-positive) and PE-Cy5 (7-AAD-positive) are shown. […] Cells were treated with 50 μM compounds or 1 μM triapine for 24 hr. During the last hour, cells were pulse-labeled with EdU, stained with the Click-iT EdU Alexa Fluor 488 Assay Kit, counterstained with 7-AAD, and subsequently analyzed by flow cytometry. EdU-positive cells were gated to determine the percentage of the S phase cell population. The percentages of DNA synthesis in cells treated with each of 10 compounds and triapine relative to the DMSO-treated control is calculated and shown. FIG. 2D depicts representative results of dNTP measurement on triapine and DB4 in PEO4 cells. Cells were treated with 1 μM triapine or 50 μM DB4 for 24 hr. Cells were extracted with 65% methanol for determination of each of dNTPs expressed as pmole/10^6 cells. Data are means±SD (N=3). *, p<0.05; **, p<0.01; ***, p<0.001, compared with the DMSO-treated control in each dNTP. […] PEO1 cells were pre-treated with 1 mM dA plus […], 10 mM dC plus 10 mM dT, or all dNs for 1 hr and then treated with various concentrations of DB4 or triapine for 72 hr. The percentage of cell survival was determined by the MTS cytotoxicity assay. Data are means±SD (N=3). *, p<0.05; **, p<0.01; ***, p<0.001, compared with the control in each concentration of DB4 or triapine. FIG. 2F depicts schematic representation of structures and molecular compound names of triapine, DB4, and A4.
PEO1 cells were treated with 30 μM DB4 or 1 μM triapine for indicated times, pulsed with EdU for 1 hr and subsequently assayed for DNA synthesis inhibition as described in FIG. 2B. The bivariate plots of Alexa Fluor 488 and PE-Cy5 were gated to determine % S phase cells. […] PEO4 cells were treated with 30 μM DB4 or 1 μM triapine for indicated times, pulsed with EdU for 1 hr and subsequently assayed for DNA synthesis inhibition as described in FIG. 2B. The bivariate plots of Alexa Fluor 488 and PE-Cy5 were gated to determine % S phase cells. […] The bivariate plots of Alexa Fluor 488 and PE-Cy5 shown in FIG. 6A and FIG. 6B were gated to determine % cells in G1, S, and G2/M phases. […] PEO4 cells were treated with 30 μM DB4 or 1 μM triapine for various time periods and subjected to western blot analysis for the levels of cyclin A2, p-CDK1/2, p-H1, p-Chk1, and HSC70. The HSC70 protein level was used as a loading control. Cropped gel images of protein bands are presented. Cyclin A2, p-CDK1/2, and p-H1 bands were from re-probing the same blot. p-Chk1 and HSC70 bands were from re-probing the same duplicated blot. […] The CDK2 activity is expressed by the percentage of the p-HI levels relative to that of the 0 hr control is shown. […] Protein was analyzed by western blotting for p-Chk1, p-ATR, p-RPA32, γH2AX, and HSC70. Cropped gel images of protein bands are presented. All protein bands were from re-probing the same blot. DSB end resection is assessed by the level of p-RPA32. […]
(In general: Flow cytometry measures light scatter and fluorescence of single cells or particles in a stream.)

Assay [2] relates to PEO1 cells. Briefly: Caspase 3/7 assay, PEO1. Type of assay: cell-based. As to conditions: 50 μM olaparib, 24 hr. The protocol: Cells were pre-treated with 30 μM DB4 for 1 hr and then treated with various concentrations of olaparib for 72 hr. Cell survival was determined by MTS cytotoxicity assay. Data are means±SD (N=3-4). […] EOB calculation was used to quantify the synergy of the combination of DB4 and various concentrations of olaparib in PEO1 or PEO4 cells as shown in FIG. 8A. EOB>0, synergism; EOB=0, additivity; EOB<0, antagonism. […] Cells were pre-treated with 30 μM DB4-F for 1 hr and then treated with various concentrations of olaparib for 72 hr. Cell survival was determined by MTS cytotoxicity assay. Data are means±SD (N=3-4). […] EOB calculation was used to quantify the synergy of the combination of DB4-F and various concentrations of olaparib in PEO1 or PEO4 cells as shown in FIG. 8B. […] Cell survival was determined by MTS cytotoxicity assay. […] Caspase 3/7 activity was expressed as RLU per μg/μl protein. […] Caspase 3/7 activity was expressed as RLU per μg/μl protein. […] Cells were treated and caspase 3/7 activity was measured as described in FIG. 8G and FIG. 8H.
Furthermore, the effects of DB4 on olaparib-induced apoptosis at 24 hr were evaluated. […]
The assay was performed as described previously (Lin Z P et al., 2018, PLOS One, 13:e0207399). […] Total protein concentration of cell lysates was determined as described above. Caspase 3/7 activity was expressed as luminescence units (RLU) per μg/μL protein for each sample.

By inhibition is commonly meant the change of the read-out against control, counted positive when it falls. Read a low inhibition as little suppression. For the compound `C=CCn1c(SCc2cccc(Cl)c2)nnc1C1CCN(Cc2nc3ccccc3s2)CC1` [DB4, 2-[(4-{4-allyl-5-[(3-chlorobenzyl)thio]-4H-1,2,4-triazol-3-yl}-1-piperidinyl)methyl]-1,3-benzothiazole], in the assay on PEO1 cells [1], the cell cycle distribution result is reported as “expansion of the G2/M population” and the “time-dependent inhibition of DNA synthesis (EdU-positive cells)” value is listed as “gradual decline in the EdU-positive cell population”. The inhibition at 50 µM in the assay on PEO1 cells [1] (Homo sapiens, 50 μM, 24 hr) is > 99%. For the same compound, in the assay on PEO1 cells [2], the “effect on olaparib-induced caspase 3/7 activity” value is recorded as “failed to enhance”.

On to `O=C(c1cc(Cc2n[nH]c(=O)c3ccccc23)ccc1F)N1CCN(C(=O)C2CC2)CC1` [olaparib, reference compound], for which the “caspase 3/7 activity, olaparib alone” value in the assay on PEO1 cells [2] is recorded as “pronounced increase in caspase 3/7 activity”.

Regarding `NC(=S)NN=Cc1ncccc1N` [triapine, 3-aminopyridine-2-carboxaldehyde-thiosemicarbazone, reference compound], in the assay on PEO1 cells [1], the cell cycle distribution result is “expansion of the G2/M population” and the “time-dependent inhibition of DNA synthesis (EdU-positive cells)” value is on record as “prompt reduction in EdU-positive cells”.
